Measurements taken from patent US10064885B2, “Metabolic gene, enzyme, and flux targets for cancer therapy” (Massachusetts Institute of Technology, priority 2010, dated 2018).

Legend:
Type in all cases: cell-based, human
UMRC2 cells = test: ISA of lipogenesis and glucose oxidation in UMRC2 cells expressing ARNT-targeting shRNAs; conditions: UMRC2 cells (VHL-deficient)
Experimental: (§1) Cell Culture, Isotopic Labeling, and Hypoxia. All cell lines were cultured in Dulbecco's Modified Eagle Medium (DMEM; Mediatech) containing 10% fetal bovine serum (FBS; Invitrogen) and 100 U/ml penicillin/streptomycin (P/S; Mediatech) unless otherwise mentioned. Cell lines were obtained from ATCC unless otherwise noted. The VC3 glioma cell line was provided by Tim Lautenschlaeger (Ohio State University), MDA-MB-231 and HCT116 cell lines were provided by Ferdinando Chiaradonna (University of Milano-Bicocca), MRC5 cells were provided by Stephen Lippard (MIT), SN12C, ACHN, and 786-O cells were provided by Kevin Courtney and Lew Cantley (Harvard Medical School), and MCF10A cells were provided by Joan Brugge (Harvard Medical School), and Huh7 cells were provided by Mike Hemann (MIT). MCF10A cells were cultured in custom DMEM/F12 (Hyclone) containing 5% horse serum, 20 ng/ml EGF, 10 μg/ml insulin, 100 ng/ml cholera toxin, 0.5 mg/ml hydrocortisone, 100 U/ml penicillin/streptomycin, and labeled/unlabeled glucose and glutamine at 18 mM and 2.5 mM, respectively. […] The internal gas content was monitored using Fyrite gas analyzers (Bacharach) for CO2 and O2. […]
(§2) Metabolite Extraction and Gas Chromatography/Mass Spectrometry (GC/MS) Analysis. […] In some ISA experiments, cells were trypsinized, counted, and pelleted prior to lipid extraction as described above. […]

A549 cells = test: Isotopomer Spectral Analysis (ISA) of lipogenesis in A549 cells
Experimental: as §1, §2

143B cells = test: Isotopomer Spectral Analysis (ISA) of lipogenesis in 143B cells
Experimental: as §1, §2

## CCGGGAGAAGTCAGATGGTTTATTTCTCGAGAAATAAACCATCTGACTTCTCTTT TT (CCGGGAGAAGTCAGATGGTTTATTTCTCGAGAAATAAACCATCTGACTTCTCTTTTT; expressed or natural sequence) [ARNT shRNA, pLKO.1 vector targeting ARNT with shRNA, obtained from Open Biosystems]
UMRC2 cells
  glucose oxidation and reductive glutamine metabolism: modulates glucose oxidation and reductive glutamine metabolism
A549 cells
  utilization of [5-13C]glutamine for lipogenesis: reduced
143B cells
  utilization of [5-13C]glutamine for lipogenesis: reduced
